This is an account of results in patent publication US10787462B2, “Heterocyclic compound” (TAKEDA PHARMACEUTICAL COMPANY LIMITED, priority 2015, dated 2020).

Each structure is given as a SMILES string.

This assay concerns the target T1, human RIPK1 (1-375) (Homo sapiens, UniProt Q13546).
T1 construct: human RIPK1 (1-375) gene; GST; made in house; host or cells: Sf-9 insect cells
T1 sequence (Q13546 1-375): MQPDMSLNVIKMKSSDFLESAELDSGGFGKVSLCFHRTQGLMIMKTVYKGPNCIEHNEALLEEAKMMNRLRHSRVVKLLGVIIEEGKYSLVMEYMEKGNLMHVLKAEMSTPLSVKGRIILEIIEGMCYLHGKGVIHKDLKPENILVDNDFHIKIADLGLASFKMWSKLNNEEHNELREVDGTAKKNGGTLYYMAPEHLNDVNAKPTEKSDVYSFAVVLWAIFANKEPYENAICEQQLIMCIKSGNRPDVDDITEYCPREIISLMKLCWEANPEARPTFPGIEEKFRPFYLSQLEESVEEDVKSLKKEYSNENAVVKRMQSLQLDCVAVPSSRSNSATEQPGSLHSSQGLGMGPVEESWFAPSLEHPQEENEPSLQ
In words: Human RIPK1 enzyme inhibitory effect (ADP-Glo Kinase Assay). The following applies: well without enzyme = 100% inhibition; for inhibition at 10 µM: read-out: human RIPK1 enzyme inhibitory effect at 10 μM (% inhibition), 10 μM test compound; for human RIPK1 enzyme inhibitory effect at 10 μM (% inhibition): 10 μM test compound. Type of assay: biochemical. In outline:
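ADP-Glo luminescence read-out of ADP formed over 120 min at room temperature after adding 0.6 mM ATP solution (stock concentration). Compound and Sf-9-expressed, GST-purified RIPK1 (1-375) were first incubated together for 20 min in HEPES pH 7.5 buffer with MgCl2, Tween-20 and DTT.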
(In general: ADP-Glo first removes unused ATP, then detects ADP through luciferase.)

One may read the inhibition as the drop in the measured response relative to a control, in per cent. On to `CN1C(=O)[C@@H](N2CCc3c(nn(Cc4ccccc4)c3Cl)C2=O)COc2cc(-c3cn[nH]c3)ccc21` [Example 140, (3S)-3-(2-benzyl-3-chloro-7-oxo-2,4,5,7-tetrahydro-6H-pyrazolo[3,4-c]pyridin-6-yl)-5-methyl-8-(1H-pyrazol-4-yl)-2,3-dihydro-1,5-benzoxazepin-4(5H)-one], for which the inhibition at 10 µM is 102%.

`CCNC(=O)c1ccc2c(c1)OC[C@H](N1CCc3c(nn(Cc4ccccc4)c3Cl)C1=O)C(=O)N2C` [Example 147, (3S)-3-(2-benzyl-3-chloro-7-oxo-2,4,5,7-tetrahydro-6H-pyrazolo[3,4-c]pyridin-6-yl)-N-ethyl-5-methyl-4-oxo-2,3,4,5-tetrahydro-1,5-benzoxazepine-8-carboxamide]: the inhibition at 10 µM was 100%. With `CN1C(=O)C(N2CCc3c(nn(Cc4ccccc4)c3Cl)C2=O)CCc2cn(C)nc21` (stereo not shown) [Example 111, 6-(2-benzyl-3-chloro-7-oxo-2,4,5,7-tetrahydro-6H-pyrazolo[3,4-c]pyridin-6-yl)-2,8-dimethyl-2,5,6,8-tetrahydropyrazolo[3,4-b]azepin-7(4H)-one], the “human RIPK1 enzyme inhibitory effect at 10 μM (% inhibition)” value turned out to be 99%. Consider `CN1C(=O)[C@@H](N2CCc3c(nn(Cc4cnccn4)c3Cl)C2=O)COc2cc(Cl)ccc21` [Example 146, (3S)-8-chloro-3-(3-chloro-7-oxo-2-(pyrazin-2-ylmethyl)-2,4,5,7-tetrahydro-6H-pyrazolo[3,4-c]pyridin-6-yl)-5-methyl-2,3-dihydro-1,5-benzoxazepin-4(5H)-one], for which the inhibition at 10 µM was determined as 101%. As to `CN1C(=O)C(N2CCc3c(nn(Cc4ccccc4F)c3Cl)C2=O)CCc2c1cnn2C` (stereo not shown) [Example 132, 6-(3-chloro-2-(2-fluorobenzyl)-7-oxo-2,4,5,7-tetrahydro-6H-pyrazolo[3,4-c]pyridin-6-yl)-1,4-dimethyl-4,6,7,8-tetrahydropyrazolo[4,3-b]azepin-5(1H)-one], the “human RIPK1 enzyme inhibitory effect at 10 μM (% inhibition)” value amounted to 89%.

As for `COc1c2c(nn1Cc1ccccc1)C(=O)N([C@H]1COc3ccccc3N(C)C1=O)CC2` [Example 48, (3S)-3-(2-benzyl-3-methoxy-7-oxo-2,4,5,7-tetrahydro-6H-pyrazolo[3,4-c]pyridin-6-yl)-5-methyl-2,3-dihydro-1,5-benzoxazepin-4(5H)-one], the inhibition at 10 µM amounted to 98%. With `CN1C(=O)[C@@H](N2Cc3c(nn(Cc4ccccc4)c3Cl)C2=O)COc2ccccc21` [Example 78, (3S)-3-(2-benzyl-3-chloro-6-oxo-2,6-dihydropyrrolo[3,4-c]pyrazol-5(4H)-yl)-5-methyl-2.3-dihydro-1,5-benzoxazepin-4(5H)-one], the inhibition at 10 µM came out at 99%. Still for that read-out and setting: with `CN1C(=O)[C@@H](N2CCc3c(nn(Cc4ccccc4)c3Cl)C2=O)COc2cc(C(=O)NCCOCCOCCOCCOc3ccc4ccccc4c3)ccc21` [Example 148, (3S)-3-(2-benzyl-3-chloro-7-oxo-2,4,5,7-tetrahydro-6H-pyrazolo[3,4-c]pyridin-6-yl)-5-methyl-N-(2-(2-(2-(2-(2-naphthyloxy)ethoxy)ethoxy)ethoxy)ethyl)-4-oxo-2,3,4,5-tetrahydro-1,5-benzoxazepine-8-carboxamide] the figure was 101%.

On to `CN1C(=O)[C@@H](N2CCc3cn(Cc4ccc(Cl)cc4)nc3C2=O)CSc2ccccc21` [Example 150, (3R)-3-(2-(4-chlorobenzyl)-7-oxo-2,4,5,7-tetrahydro-6H-pyrazolo[3,4-c]pyridin-6-yl)-5-methyl-2,3-dihydro-1,5-benzothiazepin-4(5H)-one], for which the inhibition at 10 µM is 99%. As for `CNC(=O)c1ccc2c(c1)CCC(N1CCc3c(nn(Cc4ccccc4)c3Cl)C1=O)C(=O)N2C` (stereo not shown) [Example 137, 3-(2-benzyl-3-chloro-7-oxo-2,4,5,7-tetrahydro-6H-pyrazolo[3,4-c]pyridin-6-yl)-N,1-dimethyl-2-oxo-2,3,4,5-tetrahydro-1H-1-benzazepine-7-carboxamide], the “human RIPK1 enzyme inhibitory effect at 10 μM (% inhibition)” value is listed as 87%.
